# Experiments:
# [1] = target: T1, hemoglobin (Hb) (Homo sapiens, UniProt P68871+P69905); assay: UV absorbance of hemoglobin after interaction with sample (r value, dyspnea risk evaluation)
# T1 construct: purchased Sigma H7379
# Method: Preparation of Hb solution: a proper amount of Hb was precisely weighed and dissolved by normal saline (ultrasonic treatment for 30 s), and prepared into a solution having a concentration of 2 mg/mL.
# Preparation of a BE solution: BE reference substance is precisely weighed and dissolved by 8.8% Tween 80 solution and prepared into a solution having a concentration of 1.5 mg/mL.
# 100 μL Hb solution was added to wells of a 96-well plate, and 100 μL BE sample solution, 100 μL 8.8% Tween 80 solution or 100 μL normal saline (as blank control) were successively added to the wells added with Hb solution. Each sample was repeated with 3 wells; then the microwell plate was covered, and the mixed solution was oscillated for 5 s in an oscillator to be mixed well, standing for 10 min at 25° C. A microplate reader was used for detection, and detection conditions were as follows: spectrum scanning was performed at 37° C. and 230-400 nm with a step size of 5 nm. […]
# Where, OD is an absorbance value of a to-be-detected sample containing sesquiterpenoids in zedoary turmeric oil at a certain concentration at 280 nm after interacting with Hb; ODHb is an absorbance value of normal saline as a blank control at a wavelength of 280 nm after interacting with Hb; r is a ratio of OD to ODHb.
# [2] = tested on: SD male rats; assay: Influences of β-elemene on blood gas when causing dyspnea of rats (abdominal aortic blood, blood-gas analyzer); type: in vivo, rat; settings: BE 1.5 mg/mL
# Method: Preparation of a BE solution: BE reference substances were precisely weighed and dissolved by 8.8% Tween 80 solution and prepared into a BE solution having a concentration of 1.5 mg/mL.
# 12 pieces of SPF-grade SD male rats (6 weeks of age, weight: 200±25 g) were taken; and these rats were purchased from Beijing Vital River Laboratory Animal Technology Co., Ltd, production license number: SCXK (J.) 2016-0006.Animal experiments involved in the research process were approved by Ethics Committee. The feeding conditions of the experimental rats are as follows: standard illumination-dark period is 12 h, temperature is 22±1° C., and relative humidity is 60±5%.
# The rats were randomly divided into 2 groups, 6 pieces each group. The rats were adaptively fed with common fodders for one week. Then the rats were subjected to overnight fasting (12 h), and then intraperitoneally injected with chloral hydrate (10 mg/mL, 4 mL/kg) for anesthetization. After anesthetization, the two groups were respectively injected with BE and normal saline via caudal vein with an administration volume of 6 mL/kg.
# After administration, abdominal aortic blood was taken and immediately analyzed with a blood-gas analyzer.
# [3] = target: T2, hemoglobin (Hb) α-helix (Homo sapiens, UniProt P68871+P69905); assay: Circular dichroism (CD) influences of β-elemene on Hb structure; settings: Hb 5 μM, BE 1.00-6.25 μM, 25° C.; effect increases with BE concentration; FIG. 10
# T2 construct: purchased Sigma H7379
# Method: A circular dichroism spectrum technology (CD) was used to determine the influences of β-elemene on Hb structure.
# Hb mainly presents α-helix at 200-250 nm. If the α-helix structure is changed, so do the shape of CD curve at 200-250 nm. The α-helix content of Hb at 222 nm may be calculated according to the equation (1): […]
# The mean residue ellipticity (MRE) (degcm^2/dmol) is calculated according to the equation (2): […]
# where, Cp is molar concentration (mM) of Hb; n is the number of amino acid residues; l is optical path (mm).
# Preparation of a PBS solution: a proper amount of PBS buffer solution was taken and added a small amount of Tween 80, then prepared into a PBS solution containing 0.05% Tween 80.
# Preparation of a Hb solution: a proper amount of Hb was weighed precisely and added a proper amount of PBS containing 0.05% Tween 80, then prepared into Hb having a concentration of 30 μM for further use. […]
# (2) each concentration of sample was placed into a quartz sample pool from small to large (during solution exchange, the sample pool was cleaned by PBS and rinsed with the to-be-detected solution), then the sample pool was put to the sample chamber for detection in turn, and each sample was screened by spectrum for 3 times; […]
# [4] = target: T1, hemoglobin (Hb); assay: Surface plasmon resonance (SPR) interaction between β-elemene and hemoglobin; type: binding; settings: Hb coupled on chip, BE 0.78-100.00 μM, FIGS. 8-9
# Method: Surface plasmon resonance (SPR) technology was used to verify the interaction between β-elemene and hemoglobin. […] It is generally acknowledged that KD of binding protein to small molecules has an acceptable scope of 10^−4-10^−6M.
# (1) Preparation of a Hb solution: a proper amount of Hb was weighed precisely and prepared into a solution having a concentration of 1 mg/mL with ultrapure water, then 20-fold diluted by pH 4.5 acetic acid for further use;
# (2) PBS-P+10× was prepared into PBS-P+2.1× with ultrapure water, then a proper amount of DMSO was taken and prepared into PBS 2× containing 5% DMSO+0.1% Tween 20, and filtered for further use;
# (3) A proper amount of BE reference substances were weighed precisely and dissolved into DMSO to be prepared into 10 mM solution, then the solution was diluted with PBS-P+2.1× to a reference substance solution containing 5% DMSO; and then the reference substance solution was diluted successively by 2× PBS-P+ to 100.00 μM, 50.00 μM, 25.00 μM, 12.50 μM, 6.25 μM, 3.12 μM. 1.56 μM and 0.78 μM and vortexed for 1 min, and then filtered by 0.22 μm filter membrane for further use.
# (1) Chip activation: carboxyl (channels 1 and 2) on a chip was activated by EDC/NHS;
# (2) the channel 2 was selected and coupled to a certain amount of Hb;
# (3) the activated carboxyl not coupled to proteins on the chip was blocked by ethanolamine; […]
# T1 sequence (P69905 2-142 limits assumed): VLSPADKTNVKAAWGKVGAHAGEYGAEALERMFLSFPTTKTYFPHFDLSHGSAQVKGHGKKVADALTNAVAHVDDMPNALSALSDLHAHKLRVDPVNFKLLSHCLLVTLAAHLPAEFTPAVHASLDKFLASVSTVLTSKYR
# T1 sequence (P68871 2-147 limits assumed): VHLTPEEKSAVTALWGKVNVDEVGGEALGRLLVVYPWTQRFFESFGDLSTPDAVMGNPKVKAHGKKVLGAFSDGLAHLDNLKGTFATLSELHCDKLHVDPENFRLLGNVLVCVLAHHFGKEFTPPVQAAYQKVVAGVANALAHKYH
# T2 sequence (P69905 2-142 limits assumed): as the sequence (P69905 2-142 limits assumed) above
# T2 sequence (P68871 2-147 limits assumed): as the sequence (P68871 2-147 limits assumed) above
smiles,measurement,setting,value
"C=C[C@]1(C)CC[C@@H](C(=C)C)C[C@H]1C(=C)C [BE, (1S, 2S, 4R)-1-vinyl-methyl-2,4-di(1-methylvinyl) cyclohexane]",Hb absorbance within 260-300 nm,"[1]; 1.5 mg/mL BE solution + 2 mg/mL Hb, 100 μL each, FIG. 11",significantly increasing
same,r (ratio of OD to ODHb at 280 nm),"[1]; 1.5 mg/mL BE solution, r>1.5 indicates high risk of dyspnea",≈ 1.8
same,partial pressure of arterial oxygen,"[2]; 6 mL/kg via caudal vein vs normal saline, FIG. 2",significantly decrease
same,arterial partial pressure of carbon dioxide,"[2]; 6 mL/kg via caudal vein vs normal saline, FIG. 3",significantly decreases
same,arterial blood pH,"[2]; 6 mL/kg via caudal vein vs normal saline, FIG. 4",no significant change
same,arterial oxygen saturation,"[2]; 6 mL/kg via caudal vein vs normal saline, FIG. 5",significantly decrease
same,total hemoglobin,"[2]; 6 mL/kg via caudal vein vs normal saline, FIG. 6",significantly increases
same,oxyhemoglobin,"[2]; 6 mL/kg via caudal vein vs normal saline, FIG. 7",significantly decreases
same,observed symptoms after administration,"[2]; 6 mL/kg via caudal vein, recovery after stopping administration",suffered dyspnea symptoms
same,effect on Hb α-helix (CD curve at 200-250 nm),[3],makes Hb α-helix performing helix removal
same,Kd,[4],5.84 µM

# Reference: US20230251203A1, “METHOD FOR EVALUATING ADVERSE REACTION OF SESQUITERPENOIDS IN ZEDOARY TURMERIC OIL” (BEIJING FRIENDSHIP HOSPITAL, CAPITAL MEDICAL UNIVERSITY, priority 2021, published 2023)
